From patent US7557113B2, “Substituted pyrrolo[3,2-d]pyrimidine derivatives” (Teijin Pharma Limited, priority 2003, dated 2009)

What follows are compounds tested against recombinant human GSK-3β (Homo sapiens, UniProt P49841) (assay: Determination of Inhibition of GSK-3 Activity (phospho-glycogen synthase peptide-2 phosphorylation, [γ-33P]ATP, scintillation counting)). Conditions: group stated as 20 nM<IC50<100 nM; read-out: GSK-3 inhibitor activity values (IC50 values).
Format: biochemical
Experimental: The reaction was initiated by adding 25 μL of phospho-glycogen synthase peptide-2 substrate solution [containing 6 μM phospho-glycogen synthase peptide-2, 20 μM ATP, 16 mM MOPS buffer (pH 7.0), 0.2 mM EDTA, 20 mM magnesium acetate, 0.1 μ Ci[γ-^33P]ATP (relative activity: approximately 110 TBq/mmol)] to 5 μL of each test compound using 5% dimethylsulfoxide as a solvent, and further adding 20 μL of GSK-3β enzyme solution [containing 10 mU recombinant human GSK-3β, 20 mM MOPS buffer (pH 7.0), 1 mM EDTA, 0.1% polyoxyethylene lauryl ether(23 Lauryl Ether; Brij 35), 5% glycerol, and 0.1% β-mercaptoethanol. After 20 minutes at room temperature, the reaction was terminated by the addition of the equivalent amount of 200 mM phosphoric acid solution. 90 μL of the reaction product was spotted onto a multiscreen PH plate (manufactured by Millipore) and washed with 100 mM phosphoric acid solution. The plate was dried, and 30 μL of MicroScint-O (manufactured by Packard BioScience) was added thereto. To evaluate inhibitory activity, cpm was counted using a scintillation counter. Here, Phospho GS Peptide 2 is an amino acid peptide having the following sequence: […]P)-Glu-Asp-Glu-Glu-Glu.

recombinant human GSK-3β, sequence (P49841 whole entry): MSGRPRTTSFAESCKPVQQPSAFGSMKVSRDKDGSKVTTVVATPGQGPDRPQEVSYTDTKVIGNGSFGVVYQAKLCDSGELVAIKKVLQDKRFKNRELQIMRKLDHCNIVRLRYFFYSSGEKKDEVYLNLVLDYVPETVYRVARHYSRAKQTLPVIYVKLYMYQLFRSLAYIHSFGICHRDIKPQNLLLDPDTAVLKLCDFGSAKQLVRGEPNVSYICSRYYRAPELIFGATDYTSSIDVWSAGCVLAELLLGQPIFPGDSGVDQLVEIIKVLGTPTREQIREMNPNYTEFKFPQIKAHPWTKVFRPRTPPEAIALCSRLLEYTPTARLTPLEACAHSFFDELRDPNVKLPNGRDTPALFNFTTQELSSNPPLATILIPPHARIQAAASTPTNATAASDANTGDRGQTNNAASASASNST

IC50 [nM]	Compound
20 to 100	CC(=O)NCCn1c(-c2sccc2Cl)c(-c2cccnc2)c2nc[nH]c(=O)c21 [Compound 217, N-{2-[6-(3-chloro(2-thienyl))-4-oxo-7-(3-pyridyl)-3-hydropyrrolo[3,2-d]pyrimidin-5-yl]ethyl}acetamide]
20 to 100	CC(C)(C)CC(=O)NCCn1c(-c2sccc2Cl)c(-c2cccnc2)c2nc[nH]c(=O)c21 [Compound 626, N-{2-[6-(3-chloro-thiophen-2-yl)-4-oxo-7-pyridin-3-yl-3-hydropyrrolo[3,2-d]pyrimidin-5-yl]ethyl}-t-butylacetylamide]
20 to 100	O=C(NCCn1c(-c2sccc2Cl)c(-c2cccnc2)c2nc[nH]c(=O)c21)Nc1ccccc1 [Compound 793, 1-{2-[6-(3-chloro-thiophen-2-yl)-4-oxo-7-pyridin-3-yl-3-hydropyrrolo[3,2-d]pyrimidin-5-yl]ethyl}-3-phenylurea]
20 to 100	Cc1ccc(CNC(=O)CCCn2c(C3CC3)c(-c3cccnc3)c3nc[nH]c(=O)c32)cc1 [Compound 2331, 4-(6-cyclopropyl-4-oxo-7-(3-pyridyl)(3-hydropyrrolo[3,2-d]pyrimidin-5-yl))-N-[(4-methylphenyl)methyl]butanamide]
20 to 100	Cc1ccc(CNC(=O)CCCn2c(C3CC3)c(-c3cnn(C)c3)c3nc[nH]c(=O)c32)cc1 [Compound 2332, 4-[6-cyclopropyl-7-(1-methylpyrazol-4-yl)-4-oxo-(3-hydropyrrolo[3,2-d]pyrimidin-5-yl)]-N-[(4-methylphenyl)methyl]butanamide]

Same assay, conditions: group stated as IC50<100 nM; read-out: GSK-3 inhibitor activity values (IC50 values)

IC50 [nM]	Compound
< 100	CC(C)(C)CC(=O)NCCn1c(-c2sccc2Cl)c(-c2cn[nH]c2)c2nc[nH]c(=O)c21 [Compound 629, N-{2-[7-(1H-pyrazol-4-yl)-6-(3-chloro-thiophen-2-yl)-4-oxo-3-hydropyrrolo[3,2-d]pyrimidin-5-yl]ethyl}-t-butylacetylamide]
